Data from PubChem BioAssay AID463107 (The Scripps Research Institute Molecular Screening Center, 2010).
pEC50: −log10 of the molar value.

Each compound was assayed against Sphingosine 1-phosphate receptor 4 (Homo sapiens) (UniProt O95977) (assay: S1P4 receptor agonists, human, late-stage follow-up, cell-based, fluorescence, synthesized compounds (AID 463107)). Details: S1P4 cell-based agonist assay.
Chain of Sphingosine 1-phosphate receptor 4 (Homo sapiens) (O95977 whole entry, looked up): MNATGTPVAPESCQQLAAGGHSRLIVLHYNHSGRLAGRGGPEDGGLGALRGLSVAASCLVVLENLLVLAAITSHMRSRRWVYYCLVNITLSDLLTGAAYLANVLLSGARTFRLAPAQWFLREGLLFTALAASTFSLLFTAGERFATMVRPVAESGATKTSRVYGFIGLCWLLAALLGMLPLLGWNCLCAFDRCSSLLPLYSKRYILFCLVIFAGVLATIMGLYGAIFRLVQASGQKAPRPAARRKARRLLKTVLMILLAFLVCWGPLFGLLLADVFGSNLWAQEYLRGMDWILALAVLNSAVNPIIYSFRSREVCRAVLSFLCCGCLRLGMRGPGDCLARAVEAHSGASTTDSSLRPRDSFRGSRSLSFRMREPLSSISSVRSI

Row | SMILES | pEC50
1 | Cc1ccc(OCCOc2c(Cl)cc(Cl)cc2Cl)c([N+](=O)[O-])n1 | 6.24
2 | COc1ccc(OCCOc2ccc(C)nc2[N+](=O)[O-])c(Cl)c1 | 5.41
3 | Clc1ccc(OCCOc2ccc(Br)nc2Br)c(Cl)c1 | 7.33
4 | Cc1ccc(OCCOc2ccc(Cl)cc2Cl)c([N+](=O)[O-])n1 | 6.79
5 | Cc1ccc(OCCOc2ccc(C)nc2[N+](=O)[O-])c(C)c1 | 5.14

More lines, now with the values ahead:

Row | pEC50 | SMILES
6 | 7.28 | Cc1ccc(OCCOc2ccc(Cl)cc2Cl)c(Br)n1
7 | 7.34 | FCc1ccc(OCCOc2ccc(Cl)cc2Cl)c(Cl)n1
